Active and inactive are the calls of the source. The calls are words filed in the database; no cut-off is given here.
Columns and labels:
Glucocorticoid receptor [1] = target: T1, Glucocorticoid receptor (Homo sapiens, UniProt P04150)
T1 sequence (P04150 whole entry): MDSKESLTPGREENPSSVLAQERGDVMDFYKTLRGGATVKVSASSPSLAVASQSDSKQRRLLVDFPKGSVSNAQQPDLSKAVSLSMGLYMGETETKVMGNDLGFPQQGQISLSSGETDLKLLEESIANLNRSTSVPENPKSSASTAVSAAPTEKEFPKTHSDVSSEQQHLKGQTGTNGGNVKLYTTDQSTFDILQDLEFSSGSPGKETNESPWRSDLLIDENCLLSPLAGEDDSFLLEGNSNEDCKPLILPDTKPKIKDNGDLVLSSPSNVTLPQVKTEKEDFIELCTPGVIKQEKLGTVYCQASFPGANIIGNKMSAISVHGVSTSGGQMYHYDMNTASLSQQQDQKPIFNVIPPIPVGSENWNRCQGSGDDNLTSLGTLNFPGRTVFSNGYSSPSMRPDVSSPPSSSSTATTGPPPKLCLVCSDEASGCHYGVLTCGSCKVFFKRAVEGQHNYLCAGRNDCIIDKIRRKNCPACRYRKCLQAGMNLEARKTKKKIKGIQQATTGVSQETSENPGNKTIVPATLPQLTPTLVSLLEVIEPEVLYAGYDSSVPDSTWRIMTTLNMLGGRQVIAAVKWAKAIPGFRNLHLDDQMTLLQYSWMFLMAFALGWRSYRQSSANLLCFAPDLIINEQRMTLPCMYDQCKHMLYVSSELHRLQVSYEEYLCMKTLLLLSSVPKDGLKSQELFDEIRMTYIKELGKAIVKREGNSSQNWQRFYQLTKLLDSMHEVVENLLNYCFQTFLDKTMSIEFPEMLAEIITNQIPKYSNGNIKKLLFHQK

Glucocorticoid receptor [2] = target: T1, Glucocorticoid receptor; assay: Antagonistic activity against 5 nM Dexamethasone induced glucocorticoid receptor mediated alkaline phosphatase activity; assay type: functional
Progesterone receptor = target: T2, Progesterone receptor (Homo sapiens, UniProt P06401); assay: Inhibition of human progesterone receptor
T2 sequence (P06401 whole entry): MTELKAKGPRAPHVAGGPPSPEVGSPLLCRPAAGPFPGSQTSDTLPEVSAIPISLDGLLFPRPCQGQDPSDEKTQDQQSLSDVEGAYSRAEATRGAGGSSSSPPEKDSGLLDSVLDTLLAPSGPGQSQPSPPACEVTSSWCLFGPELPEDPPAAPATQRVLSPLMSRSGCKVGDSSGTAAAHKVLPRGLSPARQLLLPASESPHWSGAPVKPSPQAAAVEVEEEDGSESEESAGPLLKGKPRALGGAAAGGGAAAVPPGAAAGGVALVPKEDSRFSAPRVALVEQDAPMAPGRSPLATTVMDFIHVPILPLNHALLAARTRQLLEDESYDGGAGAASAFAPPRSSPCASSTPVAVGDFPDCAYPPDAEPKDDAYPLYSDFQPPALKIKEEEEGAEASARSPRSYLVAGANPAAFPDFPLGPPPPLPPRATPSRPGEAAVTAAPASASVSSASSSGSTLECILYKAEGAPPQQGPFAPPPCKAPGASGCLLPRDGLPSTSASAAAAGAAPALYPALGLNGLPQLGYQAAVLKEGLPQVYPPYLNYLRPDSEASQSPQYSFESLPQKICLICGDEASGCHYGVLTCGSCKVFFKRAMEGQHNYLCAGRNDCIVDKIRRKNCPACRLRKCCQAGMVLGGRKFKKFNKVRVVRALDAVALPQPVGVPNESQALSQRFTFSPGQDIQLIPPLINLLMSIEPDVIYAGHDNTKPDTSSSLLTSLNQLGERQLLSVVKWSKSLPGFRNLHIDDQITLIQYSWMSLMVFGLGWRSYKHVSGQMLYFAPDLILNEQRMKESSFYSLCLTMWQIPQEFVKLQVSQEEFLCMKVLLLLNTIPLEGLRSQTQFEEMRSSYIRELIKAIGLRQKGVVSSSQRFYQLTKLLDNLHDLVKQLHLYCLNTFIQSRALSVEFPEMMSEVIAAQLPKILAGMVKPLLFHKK

[3] = target: T3, Glucocorticoid receptor (Homo sapiens) (UniProt P04150); settings: Huh-7
T3 sequence (whole entry): T1 sequence (P04150 whole entry)

[4] = Half life period of the compound in rat hepatocytes was determined; assay type: ADME, cell-based, Liver, Hepatocyte
[5] = Half life period of the compound in rat liver microsomes was determined; assay type: ADME, Microsome
Glucocorticoid receptor [6] = target: T4, Glucocorticoid receptor (Rattus norvegicus, UniProt P06536); assay: Inhibition of [3H]dexamethasone binding to rat glucocorticoid receptor
T4 sequence (P06536 whole entry): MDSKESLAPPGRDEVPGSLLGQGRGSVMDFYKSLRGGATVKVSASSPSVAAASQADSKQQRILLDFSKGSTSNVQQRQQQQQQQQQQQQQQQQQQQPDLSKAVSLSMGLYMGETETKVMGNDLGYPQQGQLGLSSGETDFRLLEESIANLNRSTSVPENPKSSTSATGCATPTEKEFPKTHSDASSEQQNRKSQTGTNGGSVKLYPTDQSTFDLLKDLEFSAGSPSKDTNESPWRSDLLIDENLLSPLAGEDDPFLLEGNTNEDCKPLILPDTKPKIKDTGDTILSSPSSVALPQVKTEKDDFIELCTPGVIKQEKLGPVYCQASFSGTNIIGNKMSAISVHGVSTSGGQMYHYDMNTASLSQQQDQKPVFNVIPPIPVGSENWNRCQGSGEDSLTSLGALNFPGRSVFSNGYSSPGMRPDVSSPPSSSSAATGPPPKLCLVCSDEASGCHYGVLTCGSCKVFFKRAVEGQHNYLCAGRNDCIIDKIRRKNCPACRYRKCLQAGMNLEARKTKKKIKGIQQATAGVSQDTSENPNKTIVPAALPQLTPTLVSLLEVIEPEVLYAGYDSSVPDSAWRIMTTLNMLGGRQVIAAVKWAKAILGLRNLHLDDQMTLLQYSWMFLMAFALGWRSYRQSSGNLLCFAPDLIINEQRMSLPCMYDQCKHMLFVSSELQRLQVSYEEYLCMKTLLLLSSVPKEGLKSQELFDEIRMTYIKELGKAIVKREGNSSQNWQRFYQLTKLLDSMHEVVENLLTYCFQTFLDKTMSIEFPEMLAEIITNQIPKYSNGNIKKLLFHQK

Agonistic activity [3] | SMILES | IC50 (Glucocorticoid receptor [1]) | IC50 (Glucocorticoid receptor [2]) | IC50 (Progesterone receptor) | half-life [4] | half-life [5] | IC50 (Glucocorticoid receptor [6])
 | Cc1c(NS(C)(=O)=O)cccc1N(Cc1ccccc1)Cc1ccc(Oc2ccc(OCC(=O)O)cc2)cc1 |  |  | 1.7 µM | 9.9 h | 4.6 h | 0.0021 µM
inactive | Cc1c(NS(C)(=O)=O)cccc1N(Cc1ccccc1)Cc1ccc(Oc2cccc(OCCCC(=O)NCCCC(=O)O)c2)cc1 |  |  | 0.55 µM |  |  | 0.001 µM
 | CC#C[C@]1(O)CC[C@H]2[C@@H]3CCC4=CC(=O)CC[C@]4(Cc4ccc(C)cc4)C3=CC[C@@]21C | 0.0024 µM | 0.043 µM | 2.4 µM | < 0.2 h | 0.33 h | 0.0024 µM
inactive | Cc1c(NS(C)(=O)=O)cccc1N(Cc1ccc(Oc2ccc(Cl)c(OCC(=O)O)c2)cc1)Cc1ccc(F)cc1F | 0.0026 µM | 0.5 µM | 0.15 µM |  |  | 0.0019 µM

SMILES | Agonistic activity [3] | IC50 (Glucocorticoid receptor [1]) | IC50 (Glucocorticoid receptor [2]) | IC50 (Progesterone receptor) | half-life [4] | half-life [5] | IC50 (Glucocorticoid receptor [6])
Cc1c(NS(C)(=O)=O)cccc1N(Cc1ccc(Oc2ccc(F)c(OCC(=O)O)c2)cc1)Cc1ccc(F)cc1F | inactive | 0.0048 µM | 0.44 µM | 0.18 µM | 6.5 h | 4.1 h | 0.0002 µM

— ChEMBL document CHEMBL1141148, “Antidiabetic activity of passive nonsteroidal glucocorticoid receptor modulators” (J Med Chem, 2005)
